Assay results from PubChem BioAssay AID1259411 (Chemical Carcinogenesis Research Information System (CCRIS), 2018).
Calls of active or inactive are those of the source. How the calls were made is not given here.

Test system: rodent carcinogenicity bioassays, tumor incidence
Experiment: CCRIS carcinogenicity studies
Procedure, shortened: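 Archive of carcinogenicity, mutagenicity, tumor promotion and tumor inhibition results drawn from journals, NCI reports and other sources, expert-reviewed; covers 1985-2011 and is no longer updated.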

C[C@@H]1O[C@@H](OC[C@H]2O[C@@H](Oc3c(-c4ccc(O)c(O)c4)oc4cc(OS(=O)(=O)O)cc(OS(=O)(=O)O)c4c3=O)[C@H](O)[C@@H](O)[C@@H]2O)[C@H](O)[C@H](O)[C@H]1O
carcinogen call (Species: RAT, Strain/Sex: SPRAGUE-DAWLEY/FEMALE, Route: GAVAGE, Dose: 0, 10, 27, 71, 188, 500 MG/KG 3/WK FOR 2 YR (STUDY DURATION: 2 YR), Dose: 0, 10, 27, 71, 188, 500 MG/KG 3/WK FOR 2 YR (STUDY DURATION: 2 YR)): inactive; negative
carcinogen call (Species: RAT, Strain/Sex: SPRAGUE-DAWLEY/MALE, Route: GAVAGE, Dose: 0, 10, 27, 71, 188, 500 MG/KG 3/WK FOR 2 YR (STUDY DURATION: 2 YR), Dose: 0, 10, 27, 71, 188, 500 MG/KG 3/WK FOR 2 YR (STUDY DURATION: 2 YR)): inactive; negative

O=C1C=Cc2cccc3cccc1c23
carcinogen call (Species: MOUSE, Strain/Sex: ICR/FEMALE, Route: INTRAPERITONEAL, Dose: 0, 0.84, 2.1, 4.2 MG (TOTAL DOSES) ADMINISTERED TO NEWBORN MICE AS 1/7 ON DAY 1, 2/7 ON DAY 8 AND 4/7 ON DAY 15 (STUDY D, Dose: 0, 0.84, 2.1, 4.2 MG (TOTAL DOSES) ADMINISTERED TO NEWBORN MICE AS 1/7 ON DAY 1, 2/7 ON DAY 8 AND 4/7 ON DAY 15 (STUDY D): inactive; negative
carcinogen call (Species: MOUSE, Strain/Sex: ICR/MALE, Route: INTRAPERITONEAL, Dose: 0, 0.84, 2.1, 4.2 MG (TOTAL DOSES) ADMINISTERED TO NEWBORN MICE AS 1/7 ON DAY 1, 2/7 ON DAY 8 AND 4/7 ON DAY 15 (STUDY D, Dose: 0, 0.84, 2.1, 4.2 MG (TOTAL DOSES) ADMINISTERED TO NEWBORN MICE AS 1/7 ON DAY 1, 2/7 ON DAY 8 AND 4/7 ON DAY 15 (STUDY D, Tumor Site: Type of Lesion: LUNG: TUMOR): active; positive

O=C1O[C@@H](CN2CCOCC2)CN1N=Cc1ccc([N+](=O)[O-])o1
carcinogen call (Species: RAT, Route: ORAL, Tumor Site: Type of Lesion: LYMPHATIC SYSTEM: LYMPHOBLASTIC LYMPHOMA, MAMMARY GLAND): active; positive

Cc1cccc2cccnc12
carcinogen call (Species: MOUSE, Strain/Sex: CD-1/FEMALE, Route: INTRAPERITONEAL, Dose: 0, 0.25, 0.5, 1.0 UMOL IN DMSO TO NEWBORN MICE ON DAYS 1, 8 AND 15 OF LIFE RESPECTIVELY (TOTAL DOSE: 1.75 UMOL) (STUDY D, Dose: 0, 0.25, 0.5, 1.0 UMOL IN DMSO TO NEWBORN MICE ON DAYS 1, 8 AND 15 OF LIFE RESPECTIVELY (TOTAL DOSE: 1.75 UMOL) (STUDY D): inactive; negative
carcinogen call (Species: MOUSE, Strain/Sex: CD-1/MALE, Route: INTRAPERITONEAL, Dose: 0, 0.25, 0.5, 1.0 UMOL IN DMSO TO NEWBORN MICE ON DAYS 1, 8 AND 15 OF LIFE RESPECTIVELY (TOTAL DOSE: 1.75 UMOL) (STUDY D, Dose: 0, 0.25, 0.5, 1.0 UMOL IN DMSO TO NEWBORN MICE ON DAYS 1, 8 AND 15 OF LIFE RESPECTIVELY (TOTAL DOSE: 1.75 UMOL) (STUDY D): inactive; negative
carcinogen call (Species: RAT, Strain/Sex: F344/MALE,FEMALE, Route: ORAL, Dose: 0.05% IN DIET FOR 2 YR): inactive; negative
carcinogen call (Species: RAT, Strain/Sex: SPRAGUE-DAWLEY/MALE, Route: SUBCUTANEOUS, Dose: 0, 200 UMOL/KG IN DMSO INTO SUPRASCAPULAR AREA ON DAY 1 OF LIFE FOLLOWED BY 0, 100 UMOL 1/WK AT WK 2-7 THEN 0, 200 UMOL/, Dose: 0, 200 UMOL/KG IN DMSO INTO SUPRASCAPULAR AREA ON DAY 1 OF LIFE FOLLOWED BY 0, 100 UMOL 1/WK AT WK 2-7 THEN 0, 200 UMOL/): inactive; negative
carcinogen call (Species: SPRAGUE-DAWLEY/MALE, Strain/Sex: SPRAGUE-DAWLEY/FEMALE, Route: SUBCUTANEOUS, Dose: 0, 200 UMOL/KG IN DMSO INTO SUPRASCAPULAR AREA ON DAY 1 OF LIFE FOLLOWED BY 0, 100 UMOL 1/WK AT WK 2-7 THEN 0, 200 UMOL/, Dose: 0, 200 UMOL/KG IN DMSO INTO SUPRASCAPULAR AREA ON DAY 1 OF LIFE FOLLOWED BY 0, 100 UMOL 1/WK AT WK 2-7 THEN 0, 200 UMOL/): inactive; negative

Cc1cc(-c2ccccc2C)ccc1N
carcinogen call (Species: HAMSTER, Strain/Sex: SYRIAN/FEMALE, Route: SUBCUTANEOUS, Dose: 0, 100 MG/KG BW 1/WK FOR 20 WK (STUDY DURATION: 50 WK), Tumor Site: Type of Lesion: URINARY BLADDER: CARCINOMA): active; positive
carcinogen call (Species: HAMSTER, Strain/Sex: SYRIAN/FEMALE, Route: SUBCUTANEOUS, Dose: 0.15 MMOL/KG IN PEANUT OIL 1/WK FOR 37 WK (TOTAL DOSE: 5.6 MMOL/KG), Tumor Site: Type of Lesion: URINARY BLADDER: TRANSITIONAL CELL CARCINOMA, SQUAMOUS CELL CARCINOMA): active; positive
carcinogen call (Species: HAMSTER, Strain/Sex: SYRIAN/MALE,FEMALE, Route: SUBCUTANEOUS, Dose: 100 MG/KG 1/WK FOR 52 WK, Tumor Site: Type of Lesion: URINARY BLADDER: PAPILLOMA, CARCINOMA): active; positive
carcinogen call (Species: HAMSTER, Strain/Sex: SYRIAN/MALE, Route: SUBCUTANEOUS, Dose: 0, 100 MG/KG BW 1/WK FOR 20 WK (STUDY DURATION: 50 WK), Tumor Site: Type of Lesion: URINARY BLADDER: CARCINOMA): active; positive
carcinogen call (Species: HAMSTER, Strain/Sex: SYRIAN/MALE, Route: SUBCUTANEOUS, Dose: 0, 100 MG/KG IN PEANUT OIL 1/WK FOR 8 WK, THEN ONCE EVERY 2 WK FOR 18 MO (TOTAL MAXIMUM DOSE: 555 MG), Tumor Site: Type of Lesion: URINARY BLADDER: TRANSITIONAL CELL CARCINOMA, FORESTOMACH: SQUAMOUS CELL PAPILLOMA, INTESTINES (SMALL): ADENOCARCINOMA;, Tumor Site: Type of Lesion: URINARY BLADDER: TRANSITIONAL CELL CARCINOMA, FORESTOMACH: SQUAMOUS CELL PAPILLOMA, INTESTINES (SMALL): ADENOCARCINOMA): active; positive
carcinogen call (Species: HAMSTER, Strain/Sex: SYRIAN/MALE, Route: SUBCUTANEOUS, Dose: 0.15 MMOL/KG IN PEANUT OIL 1/WK FOR 37 WK (TOTAL DOSE: 5.6 MMOL/KG), Tumor Site: Type of Lesion: URINARY BLADDER: TRANSITIONAL CELL CARCINOMA): active; positive
carcinogen call (Species: RAT, Strain/Sex: ALBINO/MALE, Route: SUBCUTANEOUS, Dose: 2.8-3.5 G/KG, Tumor Site: Type of Lesion: INTESTINES, SALIVARY GLAND, EAR (DUCT), Tumor Site: Type of Lesion: INTESTINES, SALIVARY GLAND, EAR (DUCT)): active; positive
carcinogen call (Species: RAT, Strain/Sex: F344/MALE, Route: SUBCUTANEOUS, Dose: 0, 150 MG/KG 1/WK FOR 3 WK FOLLOWED BY HIGH FAT DIET (20% CORN OIL) BEGINNING 12 WK POST LAST CARCINOGEN DOSE AND CONTIN, Tumor Site: Type of Lesion: PANCREAS: ADENOMA OR CARCINOMA): active; positive
carcinogen call (Species: RAT, Strain/Sex: F344/MALE, Route: SUBCUTANEOUS, Dose: 0, 150 MG/KG 1/WK FOR 3 WK FOLLOWED BY NORMAL FAT DIET (4.5% CORN OIL) BEGINNING 12 WK POST LAST CARCINOGEN DOSE AND CON, Tumor Site: Type of Lesion: PANCREAS: ADENOMA OR CARCINOMA): active; positive
carcinogen call (Species: RAT, Strain/Sex: F344/MALE, Route: SUBCUTANEOUS, Dose: 20 MG/KG 1/WK FOR 42 WK OR 50 MG/KG 1/WK FOR 20 WK, Tumor Site: Type of Lesion: PROSTATE GLAND: CARCINOMA (IN SITU)): active; positive
carcinogen call (Species: RAT, Strain/Sex: WISTAR/FEMALE, Route: SUBCUTANEOUS, Dose: 2 MG/100 G 5/WK FOR 12 WK, Tumor Site: Type of Lesion: MAMMARY GLAND: CARCINOMA): active; positive
carcinogen call (Species: RAT, Strain/Sex: WISTAR/MALE,FEMALE, Route: SUBCUTANEOUS, Dose: 2 MG/100 G 5/WK FOR LIFE, Tumor Site: Type of Lesion: INTESTINES (LARGE): POLYPLOID TUMOR (MULTIPLE)): active; positive

ClCc1cccnc1
carcinogen call (Species: MOUSE, Strain/Sex: B6C3F1/FEMALE, Route: GAVAGE, Dose: 0, 100, 200 MG/KG, Dose: 0, 100, 200 MG/KG, Tumor Site: Type of Lesion: STOMACH: SQUAMOUS CELL PAPILLOMA, CARCINOMA): active; positive
carcinogen call (Species: MOUSE, Strain/Sex: B6C3F1/MALE, Route: GAVAGE, Dose: 0, 100, 200 MG/KG, Dose: 0, 100, 200 MG/KG, Tumor Site: Type of Lesion: STOMACH: SQUAMOUS CELL PAPILLOMA, CARCINOMA): active; positive
carcinogen call (Species: RAT, Strain/Sex: F344/FEMALE, Route: GAVAGE, Dose: 0, 75, 150 MG/KG FOR 83 WK (STUDY DURATION: 104 WK), Dose: 0, 75, 150 MG/KG FOR 83 WK (STUDY DURATION: 104 WK), Tumor Site: Type of Lesion: FORESTOMACH: SQUAMOUS CELL PAPILLOMA): equivocal
carcinogen call (Species: RAT, Strain/Sex: F344/MALE, Route: GAVAGE, Dose: 0, 75, 150 MG/KG, Dose: 0, 75, 150 MG/KG, Tumor Site: Type of Lesion: STOMACH: SQUAMOUS CELL PAPILLOMA OR CARCINOMA): active; positive

Cc1cc(=O)[nH]c(=S)[nH]1
carcinogen call (Species: HAMSTER, Route: ORAL, Tumor Site: Type of Lesion: THYROID GLAND): active; positive
carcinogen call (Species: MOUSE, Route: ORAL, Tumor Site: Type of Lesion: THYROID GLAND): active; positive
carcinogen call (Species: RAT, Route: ORAL, Tumor Site: Type of Lesion: KIDNEY, THYROID GLAND): active; positive
